Calls of active or inactive are those of the source. No cut-off for these calls is given here.

Holding throughout (settings): dose 10-50 µM
In assay [1] the target is T1, Ubiquitin carboxyl-terminal hydrolase 4 (Homo sapiens) (UniProt Q13107).
T1 sequence (whole entry): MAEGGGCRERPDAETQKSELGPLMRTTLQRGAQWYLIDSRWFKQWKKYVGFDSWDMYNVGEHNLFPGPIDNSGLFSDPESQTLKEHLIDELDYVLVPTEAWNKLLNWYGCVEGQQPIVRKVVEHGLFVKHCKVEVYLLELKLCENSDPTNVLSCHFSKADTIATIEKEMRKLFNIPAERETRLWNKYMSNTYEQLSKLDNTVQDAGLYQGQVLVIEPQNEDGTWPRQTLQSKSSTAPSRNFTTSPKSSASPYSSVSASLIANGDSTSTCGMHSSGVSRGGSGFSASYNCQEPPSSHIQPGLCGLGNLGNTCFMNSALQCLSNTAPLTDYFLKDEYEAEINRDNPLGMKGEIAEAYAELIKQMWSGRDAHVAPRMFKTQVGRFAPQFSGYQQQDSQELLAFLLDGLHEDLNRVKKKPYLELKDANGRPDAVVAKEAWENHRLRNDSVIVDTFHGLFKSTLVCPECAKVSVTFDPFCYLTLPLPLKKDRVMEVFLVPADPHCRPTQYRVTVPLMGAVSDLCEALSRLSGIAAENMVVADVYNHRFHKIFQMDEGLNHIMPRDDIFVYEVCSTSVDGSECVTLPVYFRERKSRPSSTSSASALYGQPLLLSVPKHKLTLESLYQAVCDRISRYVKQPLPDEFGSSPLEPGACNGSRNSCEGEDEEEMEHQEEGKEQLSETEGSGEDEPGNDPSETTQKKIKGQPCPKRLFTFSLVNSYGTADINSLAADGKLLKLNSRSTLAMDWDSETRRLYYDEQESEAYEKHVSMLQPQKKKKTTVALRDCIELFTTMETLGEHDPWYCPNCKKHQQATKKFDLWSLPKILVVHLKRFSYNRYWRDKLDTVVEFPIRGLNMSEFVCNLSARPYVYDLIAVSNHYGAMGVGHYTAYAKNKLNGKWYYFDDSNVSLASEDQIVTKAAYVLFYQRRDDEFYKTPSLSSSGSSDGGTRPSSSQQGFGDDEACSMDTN
Nature of the assay: Inhibition of human USP4 using ubiquitin rhodamine 110 as substrate at 10 to 50 uM by fluorometric assay.

Assay [2] addresses T2, Ubiquitin carboxyl-terminal hydrolase 8 (Homo sapiens) (UniProt P40818).
T2 sequence (whole entry): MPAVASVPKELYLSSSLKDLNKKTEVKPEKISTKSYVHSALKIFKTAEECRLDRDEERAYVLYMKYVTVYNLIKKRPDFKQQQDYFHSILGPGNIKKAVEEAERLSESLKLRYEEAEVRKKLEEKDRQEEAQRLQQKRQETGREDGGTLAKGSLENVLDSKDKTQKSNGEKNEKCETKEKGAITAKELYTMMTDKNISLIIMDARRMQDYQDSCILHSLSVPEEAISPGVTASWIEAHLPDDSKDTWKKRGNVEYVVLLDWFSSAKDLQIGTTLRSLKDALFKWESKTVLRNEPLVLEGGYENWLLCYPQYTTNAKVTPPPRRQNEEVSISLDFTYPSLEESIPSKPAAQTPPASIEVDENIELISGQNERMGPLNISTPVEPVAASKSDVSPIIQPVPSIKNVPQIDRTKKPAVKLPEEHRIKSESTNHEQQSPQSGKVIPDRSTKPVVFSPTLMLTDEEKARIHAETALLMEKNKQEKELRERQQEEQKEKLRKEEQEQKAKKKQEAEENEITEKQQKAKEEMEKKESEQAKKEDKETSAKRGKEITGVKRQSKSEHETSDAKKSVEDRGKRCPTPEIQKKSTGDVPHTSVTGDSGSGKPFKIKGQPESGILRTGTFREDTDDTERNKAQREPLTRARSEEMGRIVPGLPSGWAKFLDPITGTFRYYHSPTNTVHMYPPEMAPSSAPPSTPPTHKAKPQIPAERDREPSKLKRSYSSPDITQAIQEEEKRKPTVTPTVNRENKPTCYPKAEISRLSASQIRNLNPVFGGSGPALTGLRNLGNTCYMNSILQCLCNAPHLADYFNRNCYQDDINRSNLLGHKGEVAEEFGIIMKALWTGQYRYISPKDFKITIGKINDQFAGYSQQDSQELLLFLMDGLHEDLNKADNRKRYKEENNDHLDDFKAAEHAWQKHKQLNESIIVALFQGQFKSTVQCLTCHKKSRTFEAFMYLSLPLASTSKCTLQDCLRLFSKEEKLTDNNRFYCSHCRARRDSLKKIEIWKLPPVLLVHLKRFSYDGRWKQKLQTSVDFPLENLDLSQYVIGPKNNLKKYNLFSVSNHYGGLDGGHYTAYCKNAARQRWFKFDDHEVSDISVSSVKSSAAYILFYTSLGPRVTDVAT
Nature of the assay: Inhibition of human USP8 using ubiquitin rhodamine 110 as substrate at 10 to 50 uM by fluorometric assay.

In assay [3] the target is Ubiquitin carboxyl-terminal hydrolase 9X (Homo sapiens) (UniProt Q93008). Nature of the assay: Inhibition of human USP9X (1551 to 1970 residues) expressed in Escherichia coli BL21 (DE3) using ubiquitin rhodamine 110 as substrate assessed as remaining enzyme activity at 10 to 50 uM by fluorometric assay.
Ubiquitin carboxyl-terminal hydrolase 9X (Homo sapiens), sequence (Q93008 whole entry, the tested form may be a part): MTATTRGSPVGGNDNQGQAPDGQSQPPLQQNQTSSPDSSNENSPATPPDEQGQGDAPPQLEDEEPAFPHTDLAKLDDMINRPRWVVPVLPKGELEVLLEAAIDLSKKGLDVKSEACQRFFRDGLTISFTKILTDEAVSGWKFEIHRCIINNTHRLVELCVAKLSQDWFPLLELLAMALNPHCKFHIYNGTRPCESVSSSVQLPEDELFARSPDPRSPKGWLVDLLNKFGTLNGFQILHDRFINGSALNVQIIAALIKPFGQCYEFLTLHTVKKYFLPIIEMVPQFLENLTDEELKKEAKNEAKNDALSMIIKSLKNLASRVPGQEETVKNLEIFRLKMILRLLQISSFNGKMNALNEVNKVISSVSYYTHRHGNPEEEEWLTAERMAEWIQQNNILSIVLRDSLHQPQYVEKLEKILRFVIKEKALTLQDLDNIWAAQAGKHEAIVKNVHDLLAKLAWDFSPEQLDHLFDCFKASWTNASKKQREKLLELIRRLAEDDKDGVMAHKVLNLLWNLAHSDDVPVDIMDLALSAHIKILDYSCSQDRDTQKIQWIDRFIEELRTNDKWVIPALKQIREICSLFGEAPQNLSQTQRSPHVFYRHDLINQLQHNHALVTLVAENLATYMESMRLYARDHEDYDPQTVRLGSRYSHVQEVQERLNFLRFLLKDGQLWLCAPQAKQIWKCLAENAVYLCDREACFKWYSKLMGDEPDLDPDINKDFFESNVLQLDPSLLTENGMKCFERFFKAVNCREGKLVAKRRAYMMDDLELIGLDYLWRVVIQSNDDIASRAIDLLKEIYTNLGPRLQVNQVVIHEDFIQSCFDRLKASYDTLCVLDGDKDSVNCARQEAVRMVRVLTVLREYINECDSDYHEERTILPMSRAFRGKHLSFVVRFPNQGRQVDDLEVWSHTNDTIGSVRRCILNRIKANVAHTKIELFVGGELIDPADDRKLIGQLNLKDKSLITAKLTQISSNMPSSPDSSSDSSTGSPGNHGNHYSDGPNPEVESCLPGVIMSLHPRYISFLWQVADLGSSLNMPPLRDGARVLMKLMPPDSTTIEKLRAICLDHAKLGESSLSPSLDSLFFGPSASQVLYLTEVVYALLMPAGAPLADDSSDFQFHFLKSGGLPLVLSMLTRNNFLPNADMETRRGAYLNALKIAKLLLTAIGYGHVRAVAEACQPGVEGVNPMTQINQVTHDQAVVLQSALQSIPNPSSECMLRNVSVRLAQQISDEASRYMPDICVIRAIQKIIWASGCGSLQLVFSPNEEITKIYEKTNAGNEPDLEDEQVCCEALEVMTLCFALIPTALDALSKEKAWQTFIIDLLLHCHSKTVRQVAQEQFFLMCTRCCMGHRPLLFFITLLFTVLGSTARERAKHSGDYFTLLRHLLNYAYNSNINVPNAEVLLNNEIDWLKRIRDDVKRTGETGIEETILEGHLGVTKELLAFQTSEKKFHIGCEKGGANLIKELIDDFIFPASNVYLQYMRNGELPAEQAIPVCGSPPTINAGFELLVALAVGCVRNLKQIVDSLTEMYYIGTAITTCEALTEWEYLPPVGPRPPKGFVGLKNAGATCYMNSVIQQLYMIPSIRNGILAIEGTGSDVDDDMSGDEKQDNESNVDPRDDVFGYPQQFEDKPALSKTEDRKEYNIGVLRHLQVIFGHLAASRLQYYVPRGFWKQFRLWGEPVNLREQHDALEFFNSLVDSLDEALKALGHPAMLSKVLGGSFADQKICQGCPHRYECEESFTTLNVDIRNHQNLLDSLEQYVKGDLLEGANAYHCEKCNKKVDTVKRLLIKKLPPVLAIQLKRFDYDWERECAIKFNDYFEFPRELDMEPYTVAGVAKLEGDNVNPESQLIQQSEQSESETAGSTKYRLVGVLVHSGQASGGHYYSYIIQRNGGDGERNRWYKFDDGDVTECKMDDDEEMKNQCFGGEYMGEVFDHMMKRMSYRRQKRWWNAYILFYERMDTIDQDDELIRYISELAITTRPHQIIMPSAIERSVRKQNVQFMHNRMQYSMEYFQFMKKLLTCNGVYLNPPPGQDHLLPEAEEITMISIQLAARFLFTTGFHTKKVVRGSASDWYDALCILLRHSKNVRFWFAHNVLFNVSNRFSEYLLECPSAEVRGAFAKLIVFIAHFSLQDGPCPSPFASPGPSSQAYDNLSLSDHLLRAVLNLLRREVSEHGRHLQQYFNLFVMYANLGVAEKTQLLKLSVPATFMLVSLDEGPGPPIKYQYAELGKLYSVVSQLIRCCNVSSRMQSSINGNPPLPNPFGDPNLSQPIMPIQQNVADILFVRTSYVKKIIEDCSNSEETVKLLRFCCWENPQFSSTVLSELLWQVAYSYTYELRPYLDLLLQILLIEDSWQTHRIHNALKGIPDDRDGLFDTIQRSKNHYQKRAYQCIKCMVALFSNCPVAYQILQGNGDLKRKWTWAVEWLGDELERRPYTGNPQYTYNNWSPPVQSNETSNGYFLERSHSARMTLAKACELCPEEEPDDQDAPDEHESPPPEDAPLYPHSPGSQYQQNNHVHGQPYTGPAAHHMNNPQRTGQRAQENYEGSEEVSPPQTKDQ

For `CC(C)C[C@H](NC(=O)C1(C(F)(F)F)CCCCC1)C(=O)Nc1nnc(Cc2ccc(C#N)cc2)s1`, the inhibition entry in assay [1] and in assay [2] was “inactive” throughout.

For `CC(NC(=O)C1CCCC1)C(=O)Nc1nnc(Cc2ccc([N+](=O)[O-])cc2)s1` (racemic), in assay [3], the Activity was less than 50%.
